Test system: Glaucoma patients
Experiment: Clinical study: subtenon injection of MMC versus MMC-soaked sponges in trabeculectomy
Procedure: A clinical study was set up to compare the efficacy and safety of subtenon injection of mitomycin C (MMC) using the instant injection system and kits, with that of conventional application of MMC-soaked sponges in trabeculectomy. Glaucoma patients were randomized into two groups; group 1 received a subtenon injection of 0.1 mL of 0.01% MMC by the second sterile syringe, while group 2 received 0.02% MMC-soaked Weck-Cel® sponges to physically disperse the MMC. The injection was placed in the far posterior fornix on a 30-gauge needle prior to the conjunctival peritomy for trabeculectomy. Primary outcome measure is intraocular pressure (IOP), and secondary outcome measures are endothelial cell count (ECC) changes and bleb morphology according to the Indiana Bleb Appearance Grading Scale. Outcome measures were compared at 1, 3 and 6 months postoperatively. Complete and qualified success was defined as IOP within 6-15 mm Hg without and with medications at month 6, respectively.
Data was to be presented in the form of mean, SD, median and range, frequency and percentage values. Normal distribution of data was assessed by Kolmogrov-Smirnov test and Q-Q plot. To evaluate differences between the study groups, χ2, t-test and Mann-Whitney tests. Wilcoxon singed-rank test and the linear mixed model were used to assess changes within the study groups. The Wilcoxon singed-rank test is followed by Bonferroni correction to consider multiple comparisons. To compare the groups adjusted for baseline values, analysis of covariance and Poisson regression (based on the type of response) were used. All statistical analyses were performed using SPSS software (IBM SPSS Statistics for Windows, V. 23.0, Released 2014, IBM, Armonk, New York, USA). All tests were two-sided and p values less than 0.05 were considered statistically significant.

Compound: CO[C@@]12[C@H](COC(N)=O)C3=C(C(=O)C(C)=C(N)C3=O)N1C[C@@H]1N[C@@H]12 [MMC, mitomycin C]
- dependence on glaucoma medications (MMC injection compared to cellulose sponge delivery, trabeculectomy): decreased
- bleb morphology (Indiana Bleb Appearance Grading Scale) (MMC injection compared to trabeculectomies performed with sponges): more favorable
- overall study conclusion for MMC injection versus sponge delivery (MMC injection through the instant apparatus and kits): non-inferiority with improved predictability
- intraocular pressure (IOP) (subtenon injection of 0.1 mL of 0.01% MMC compared to 0.02% MMC-soaked cellulose sponges, trabeculectomy, 1, 3 and 6 months postoperatively): lower

Source: patent US12629319B2, “Injection apparatus and method of use” (MOBIUS THERAPEUTICS, INC., priority 2020, dated 2026)
